For three compounds, IC50, inhibition and TGI results are on record in paper PMC9136011, “Targeting the Homologous Recombination Pathway in Cancer With a Novel Class of RAD51 Inhibitors” (Frontiers in Oncology, 2022).

Where only a bound is given, the exact number is not on record here.

One assay deals with normal WI-38 cells. In words: Cell growth inhibition assay, normal cells. The assay is classed as cell-based. To be noted: Homo sapiens, read-out: IC50, normal cell viability. The method, then: (§1) Cells were seeded in opaque-walled 96-well microplates at appropriate densities according to the growth curves (data no shown). On the following day cells were dosed with compounds. After 7 days treatments, cells viability was measured by adding 30μL CellTiter-Glo reagent (Promega) and incubated for 10 min at RT. Luminescence was measured by Envision plate reader (Perkin Elmer). For synergy analysis, the survival rates of the cells upon different treatment combinations were calculated based on the luminescence and analyzed by Combenefit software. The bliss independence model was used to analyzed the interaction between two tested articles to determine if the interaction between those two tested articles was synergistic, independent or antagonistic.

A further assay deals with MIA PaCa-2 cells. In words: Cell growth inhibition assay (CellTiter-Glo) and Bliss synergy analysis. In kind it is cell-based. The following applies: Homo sapiens, MIA PaCa-2, 168 h; 7 days, estimated from four-parameter curve. Here is the method:
as §1

The next assay has as its system KP-4 cells. The assay is described as above. The assay is classed as cell-based. The following applies: Homo sapiens, KP-4, 168 h; 7 days, estimated from four-parameter curve. Here is the method: as §1
A further assay has as its system NCI-H23 cells. The description is as above. In kind it is cell-based. To be noted: Homo sapiens, NCI-H23, 168 h; 7 days, estimated from four-parameter curve. The method, then:
as §1

The test system of the next assay is Daudi cells. The assay is described as above. In kind it is cell-based. To be noted: Homo sapiens, 168 h, 7 days; for IC50: estimated from four-parameter curve. The method, then:
as §1

In another assay the test system is A549 cells. The description is as above. The assay is classed as cell-based. To be noted: Homo sapiens, A549, 168 h; 7 days, estimated from four-parameter curve. The method, then:
as §1

The subject of the next assay is MDA-MB-436 cells. The assay is described as above. The assay is classed as cell-based. The following applies: Homo sapiens, MDA-MB-436, 168 h; 7 days, estimated from four-parameter curve. The method, then:
as §1

In the next assay the test system is MDA-MB-468 cells. As to the kind of experiment: Cell growth inhibition assay (CellTiter-Glo). The assay is classed as cell-based. The following applies: Homo sapiens, MDA-MB-468, 168 h; 7 days, estimated from four-parameter curve. The method, then: as §1
In a further assay the test system is MDA-MB-231 cells. As to the kind of experiment: Cell growth inhibition assay (CellTiter-Glo). In kind it is cell-based. The following applies: Homo sapiens, MDA-MB-231, 168 h; 7 days, estimated from four-parameter curve. The method, then: as §1
The next assay relates to HCC15 cells. In words: Cell growth inhibition assay (CellTiter-Glo). The following applies: Homo sapiens, HCC15, 168 h; 7 days, estimated from four-parameter curve. The assay is classed as cell-based. Here is the method:
as §1

The next assay has as its system NCI-H526 cells. As to the kind of experiment: Cell growth inhibition assay (CellTiter-Glo). In kind it is cell-based. To be noted: Homo sapiens, NCI-H526, 168 h; 7 days, estimated from four-parameter curve. Here is the method:
as §1

The next assay concerns Raji cells. In words: Cell growth inhibition assay (CellTiter-Glo). In kind it is cell-based. To be noted: Homo sapiens, 168 h, 7 days, estimated from four-parameter curve. The method, then: as §1
The next assay relates to Z-138 cells. In words: Cell growth inhibition assay (CellTiter-Glo). In kind it is cell-based. The following applies: Homo sapiens, Z-138, 168 h; 7 days, estimated from four-parameter curve. The method, then:
as §1

Another assay deals with NCI-H1563 cells. As to the kind of experiment: Cell growth inhibition assay (CellTiter-Glo). In kind it is cell-based. The following applies: Homo sapiens, NCI-H1563, 168 h; 7 days, estimated from four-parameter curve. Here is the method:
as §1

The test system of the next assay is HCC1937 cells. In words: Cell growth inhibition assay (CellTiter-Glo). The assay is classed as cell-based. The following applies: Homo sapiens, HCC1937, 168 h; 7 days, estimated from four-parameter curve. Here is the method: as §1
For a further assay, the system named is HuP-T4 cells. In words: Cell growth inhibition assay (CellTiter-Glo). In kind it is cell-based. The following applies: Homo sapiens, HuP-T4, 168 h; 7 days, estimated from four-parameter curve. Here is the method: as §1
For assay [1], the system named is 15 human tumor cell lines. As to the kind of experiment: Cell growth inhibition assay, panel summary. To be noted: lowest to highest, upper end printed as over 25 μM, read-out: IC50 values across the 15 cell lines. In kind it is cell-based. Here is the method: as §1
The next assay concerns Daudi xenograft. In words: Daudi xenograft mouse model, tumor growth inhibition. To be noted: 2 mg/kg Cisplatin intraperitoneally every week. The assay is classed as in vivo. The method, then: Daudi xenograft mouse model was established by subcutaneously implantation of 10^7 cells into the female BABL/c nude mice at the age of 6-8 weeks. When tumors reached approximately 100-120 mm^3, the mice were randomly grouped into five groups (n=6) and treated with vehicle control orally every day, 30 mg/kg or 100 mg/kg Cpd-4 orally every day, 2 mg/kg Cisplatin intraperitoneally every week, or combination of 30 mg/kg Cpd-4 and 2 mg/kg Cisplatin. Cpd-4 was formulated in 30% PEG400 (Sigma) and 70% 10% vitamin E TPGS (Sigma) in water. Cisplatin was reconstituted in normal saline. Cpd-4 was administrated starting from Day 0 and Cisplatin was administrated starting from on Day1. Cisplatin was administrated 4 hours after the treatment of Cpd-4 at day 1, 8 and 15. Tumor volume was monitored twice a week.
The long diameter (a) and the short diameter (b) of the tumor were measured using caliper and the tumor volume (v was calculated using the following formula: […]
Tumor growth inhibition was calculated using the formula:
TGI(%)=(1−(Vt(treatment group)−V0(treatment group))/Vt(vehicle group)−V0(vehicle group))×100%
V0 is the tumor volume of the animal when treatment starts; vtis the tumor volume of the animal someday after treatment. The statistics of tumor volume was analyzed by two-way ANOVA followed by Tukey’s multiple comparisons test using GraphPad Prism 8.0.

Regarding `CC(C)OC(=O)Nc1ccc(-c2cnc(C3CCC(NC(=O)OC(C)C)CC3)s2)c(S(=O)(=O)C2CC2)c1` (stereo not shown) [Cpd-2], the concentration for half-maximal inhibition (IC50) with normal WI-38 cells is greater than 10 µM; with MIA PaCa-2 cells, 4.73 µM; with KP-4 cells, 3.17 µM; in the assay with NCI-H23 cells, 3.54 µM; with Daudi cells, 0.048 µM; with A549 cells it was 3.96 µM. Further, the IC50 with MDA-MB-436 cells is 2.65 µM; with MDA-MB-468 cells, 0.63 µM; in the assay with MDA-MB-231 cells, 5.15 µM; in the assay on HCC15 cells, 2.02 µM; in the assay with NCI-H526 cells, 0.353 µM; in the assay with Raji cells it was 0.164 µM. In addition, the IC50 with Z-138 cells was 4.57 µM; in the assay on NCI-H1563 cells, 12.8 µM; in the assay on HCC1937 cells, 3.29 µM; in the assay with HuP-T4 cells it was 7.99 µM. Also, the inhibition at 0.25 µM in the assay on Daudi cells (Cpd-2 250 nM) stood at 41.1%.

On to `O=C(c1cc(Cc2n[nH]c(=O)c3ccccc23)ccc1F)N1CCN(C(=O)C2CC2)CC1` [Olaparib, olaparib], for which the IC50 in the assay with MIA PaCa-2 cells was 7.16 µM; with KP-4 cells, 7.09 µM; in the assay with NCI-H23 cells, 3.3 µM; in the assay with Daudi cells, 5.78 µM; in the assay on A549 cells, 17.8 µM; in the assay on MDA-MB-436 cells, 0.134 µM. Further, the IC50 in [1] is 0.134 to 25 µM; in the assay on MDA-MB-468 cells, 5.55 µM; with MDA-MB-231 cells, 4.92 µM; in the assay on HCC15 cells, 9.17 µM; in the assay with NCI-H526 cells, 3.91 µM; in the assay with Raji cells it was 4.87 µM. For the same compound, the IC50 is 1.49 µM in the assay on Z-138 cells, greater than 25 µM with NCI-H1563 cells, 10.7 µM with HCC1937 cells and 7.71 µM in the assay with HuP-T4 cells.

`N.N.[Cl][Pt][Cl]` [Cisplatin, cisplatin]: the TGI with Daudi xenograft came out at 20.7%.

For orientation: IC50 means the concentration at which inhibition is half-maximal. What is called inhibition is the change of the read-out against control, counted positive when it falls. Broadly, the TGI is the reduction of tumour growth relative to the control group.
